From ChEMBL document CHEMBL4665642, “Anticancer profile of newly synthesized BRAF inhibitors possess 5-(pyrimidin-4-yl)imidazo[2,1-b]thiazole scaffold” (Bioorg Med Chem, 2019)

Columns and labels:
Assay type in all cases: functional
Conditions in all cases: read-out: Activity
KM12 = assay: Cytotoxicity against human KM12 cells assessed as cell viability at 10 uM incubated for 48 hrs by sulforhodamine B assay relative to control
M14 = assay: Cytotoxicity against human M14 cells assessed as cell viability at 10 uM incubated for 48 hrs by sulforhodamine B assay relative to control
OVCAR-5 = assay: Cytotoxicity against human OVCAR-5 cells assessed as cell viability at 10 uM incubated for 48 hrs by sulforhodamine B assay relative to control
NCI-H322M = assay: Cytotoxicity against human NCI-H322M cells assessed as cell viability at 10 uM incubated for 48 hrs by sulforhodamine B assay relative to control
CAKI-1 = assay: Cytotoxicity against human CAKI-1 cells assessed as cell viability at 10 uM incubated for 48 hrs by sulforhodamine B assay relative to control
SNB-19 = assay: Cytotoxicity against human SNB-19 cells assessed as cell viability at 10 uM incubated for 48 hrs by sulforhodamine B assay relative to control
BT-549 = assay: Cytotoxicity against human BT-549 cells assessed as cell viability at 10 uM incubated for 48 hrs by sulforhodamine B assay relative to control
IGROV-1 = assay: Cytotoxicity against human IGROV-1 cells assessed as cell viability at 10 uM incubated for 48 hrs by sulforhodamine B assay relative to control
MOLT-4 = assay: Cytotoxicity against human MOLT-4 cells assessed as cell viability at 10 uM incubated for 48 hrs by sulforhodamine B assay relative to control
SN12C = assay: Cytotoxicity against human SN12C cells assessed as cell viability at 10 uM incubated for 48 hrs by sulforhodamine B assay relative to control
Malme-3M = assay: Cytotoxicity against human Malme-3M cells assessed as cell viability at 10 uM incubated for 48 hrs by sulforhodamine B assay relative to control
UACC-62 = assay: Cytotoxicity against human UACC-62 cells assessed as cell viability at 10 uM incubated for 48 hrs by sulforhodamine B assay relative to control
SW-620 = assay: Cytotoxicity against human SW-620 cells assessed as cell viability at 10 uM incubated for 48 hrs by sulforhodamine B assay relative to control
EKVX = assay: Cytotoxicity against human EKVX cells assessed as cell viability at 10 uM incubated for 48 hrs by sulforhodamine B assay relative to control
SF-295 = assay: Cytotoxicity against human SF-295 cells assessed as cell viability at 10 uM incubated for 48 hrs by sulforhodamine B assay relative to control
SNB-75 = assay: Cytotoxicity against human SNB-75 cells assessed as cell viability at 10 uM incubated for 48 hrs by sulforhodamine B assay relative to control
K562 = assay: Cytotoxicity against human K562 cells assessed as cell viability at 10 uM incubated for 48 hrs by sulforhodamine B assay relative to control
CCRF-CEM = assay: Cytotoxicity against human CCRF-CEM cells assessed as cell viability at 10 uM incubated for 48 hrs by sulforhodamine B assay relative to control
U-251 = assay: Cytotoxicity against human U-251 cells assessed as cell viability at 10 uM incubated for 48 hrs by sulforhodamine B assay relative to control
SK-MEL-5 = assay: Cytotoxicity against human SK-MEL-5 cells assessed as cell viability at 10 uM incubated for 48 hrs by sulforhodamine B assay relative to control
HCT-116 = assay: Cytotoxicity against human HCT-116 cells assessed as cell viability at 10 uM incubated for 48 hrs by sulforhodamine B assay relative to control
NCI-H522 = assay: Cytotoxicity against human NCI-H522 cells assessed as cell viability at 10 uM incubated for 48 hrs by sulforhodamine B assay relative to control
HCC 2998 = assay: Cytotoxicity against human HCC 2998 cells assessed as cell viability at 10 uM incubated for 48 hrs by sulforhodamine B assay relative to control
786-0 = assay: Cytotoxicity against human 786-0 cells assessed as cell viability at 10 uM incubated for 48 hrs by sulforhodamine B assay relative to control
SF-268 = assay: Cytotoxicity against human SF-268 cells assessed as cell viability at 10 uM incubated for 48 hrs by sulforhodamine B assay relative to control
TK-10 = assay: Cytotoxicity against human TK-10 cells assessed as cell viability at 10 uM incubated for 48 hrs by sulforhodamine B assay relative to control
OVCAR-4 = assay: Cytotoxicity against human OVCAR-4 cells assessed as cell viability at 10 uM incubated for 48 hrs by sulforhodamine B assay relative to control
HOP-92 = assay: Cytotoxicity against human HOP-92 cells assessed as cell viability at 10 uM incubated for 48 hrs by sulforhodamine B assay relative to control
MDA-MB-435 = assay: Cytotoxicity against human MDA-MB-435 cells assessed as cell viability at 10 uM incubated for 48 hrs by sulforhodamine B assay relative to control
NCI-H23 = assay: Cytotoxicity against human NCI-H23 cells assessed as cell viability at 10 uM incubated for 48 hrs by sulforhodamine B assay relative to control
ACHN = assay: Cytotoxicity against human ACHN cells assessed as cell viability at 10 uM incubated for 48 hrs by sulforhodamine B assay relative to control
OVCAR-8 = assay: Cytotoxicity against human OVCAR-8 cells assessed as cell viability at 10 uM incubated for 48 hrs by sulforhodamine B assay relative to control
UO-31 = assay: Cytotoxicity against human UO-31 cells assessed as cell viability at 10 uM incubated for 48 hrs by sulforhodamine B assay relative to control
UACC-257 = assay: Cytotoxicity against human UACC-257 cells assessed as cell viability at 10 uM incubated for 48 hrs by sulforhodamine B assay relative to control
HOP-62 = assay: Cytotoxicity against human HOP-62 cells assessed as cell viability at 10 uM incubated for 48 hrs by sulforhodamine B assay relative to control
SK-OV-3 = assay: Cytotoxicity against human SK-OV-3 cells assessed as cell viability at 10 uM incubated for 48 hrs by sulforhodamine B assay relative to control
COLO 205 = assay: Cytotoxicity against human COLO 205 cells assessed as cell viability at 10 uM incubated for 48 hrs by sulforhodamine B assay relative to control
OVCAR-3 = assay: Cytotoxicity against human OVCAR-3 cells assessed as cell viability at 10 uM incubated for 48 hrs by sulforhodamine B assay relative to control
PC-3 = assay: Cytotoxicity against human PC-3 cells assessed as cell viability at 10 uM incubated for 48 hrs by sulforhodamine B assay relative to control
RPMI-8226 = assay: Cytotoxicity against human RPMI-8226 cells assessed as cell viability at 10 uM incubated for 48 hrs by sulforhodamine B assay relative to control
NCI/ADR-RES = assay: Cytotoxicity against human NCI/ADR-RES cells assessed as cell viability at 10 uM incubated for 48 hrs by sulforhodamine B assay relative to control

## O=S(=O)(NCCCNc1nccc(-c2c(-c3cccc(F)c3)nc3sccn23)n1)c1ccc(C(F)(F)F)cc1
KM12
  viability at 10 µM: 88.5%
M14
  viability at 10 µM: 92.4%
OVCAR-5
  viability at 10 µM: 129%
NCI-H322M
  viability at 10 µM: 104%
CAKI-1
  viability at 10 µM: 67.9%
SNB-19
  viability at 10 µM: 96.1%
BT-549
  viability at 10 µM: 99.8%
IGROV-1
  viability at 10 µM: 66.2%
MOLT-4
  viability at 10 µM: 62%
SN12C
  viability at 10 µM: 89%
Malme-3M
  viability at 10 µM: 127%
UACC-62
  viability at 10 µM: 80.4%
SW-620
  viability at 10 µM: 115%
EKVX
  viability at 10 µM: 87.3%
SF-295
  viability at 10 µM: 104%
SNB-75
  viability at 10 µM: 86.4%
K562
  viability at 10 µM: 69.8%
CCRF-CEM
  viability at 10 µM: 89.4%
U-251
  viability at 10 µM: 95.1%
SK-MEL-5
  viability at 10 µM: 91.1%
HCT-116
  viability at 10 µM: 86.2%
NCI-H522
  viability at 10 µM: 85.5%
HCC 2998
  viability at 10 µM: 125%
786-0
  viability at 10 µM: 80.1%
SF-268
  viability at 10 µM: 75.6%
TK-10
  viability at 10 µM: 107%
OVCAR-4
  viability at 10 µM: 93%
HOP-92
  viability at 10 µM: 94.8%
MDA-MB-435
  viability at 10 µM: 74.2%
NCI-H23
  viability at 10 µM: 90%
ACHN
  viability at 10 µM: 87.8%
OVCAR-8
  viability at 10 µM: 75.7%
UO-31
  viability at 10 µM: 57.9%
UACC-257
  viability at 10 µM: 110%
HOP-62
  viability at 10 µM: 104%
SK-OV-3
  viability at 10 µM: 77.7%
COLO 205
  viability at 10 µM: 91%
OVCAR-3
  viability at 10 µM: 92.8%
PC-3
  viability at 10 µM: 67.8%
RPMI-8226
  viability at 10 µM: 87.4%
NCI/ADR-RES
  viability at 10 µM: 87.2%

## O=C(NCCNc1nccc(-c2c(-c3cccc(F)c3)nc3sccn23)n1)c1ccc(C(F)(F)F)cc1
KM12
  viability at 10 µM: 75.1%
M14
  viability at 10 µM: 59.4%
OVCAR-5
  viability at 10 µM: 93.5%
NCI-H322M
  viability at 10 µM: 81.8%
CAKI-1
  viability at 10 µM: 55%
SNB-19
  viability at 10 µM: 86.8%
BT-549
  viability at 10 µM: 78.9%
IGROV-1
  viability at 10 µM: 27.8%
MOLT-4
  viability at 10 µM: 50%
SN12C
  viability at 10 µM: 66.6%
Malme-3M
  viability at 10 µM: 55.7%
UACC-62
  viability at 10 µM: 26.4%
SW-620
  viability at 10 µM: 79%
EKVX
  viability at 10 µM: 69.1%
SF-295
  viability at 10 µM: 74.4%
SNB-75
  viability at 10 µM: 73.7%
K562
  viability at 10 µM: 61.8%
CCRF-CEM
  viability at 10 µM: 53.5%
U-251
  viability at 10 µM: 77%
SK-MEL-5
  viability at 10 µM: 56.6%
HCT-116
  viability at 10 µM: 50.6%
NCI-H522
  viability at 10 µM: 65.7%
HCC 2998
  viability at 10 µM: 100%
786-0
  viability at 10 µM: 65.7%
SF-268
  viability at 10 µM: 64.9%
TK-10
  viability at 10 µM: 86.1%
OVCAR-4
  viability at 10 µM: 81.8%
HOP-92
  viability at 10 µM: 86.7%
MDA-MB-435
  viability at 10 µM: 47.7%
NCI-H23
  viability at 10 µM: 80%
ACHN
  viability at 10 µM: 42.6%
OVCAR-8
  viability at 10 µM: 54.8%
UO-31
  viability at 10 µM: 34.5%
UACC-257
  viability at 10 µM: 96.8%
HOP-62
  viability at 10 µM: 89.9%
SK-OV-3
  viability at 10 µM: 70.2%
COLO 205
  viability at 10 µM: 32.7%
OVCAR-3
  viability at 10 µM: 76.5%
PC-3
  viability at 10 µM: 61%
RPMI-8226
  viability at 10 µM: 52.7%
NCI/ADR-RES
  viability at 10 µM: 73.1%

## O=S(=O)(NCCCNc1nccc(-c2c(-c3cccc(F)c3)nc3sccn23)n1)c1ccc(O)cc1
KM12
  viability at 10 µM: 27.4%
M14
  viability at 10 µM: 70.3%
OVCAR-5
  viability at 10 µM: 113%
NCI-H322M
  viability at 10 µM: 79.2%
CAKI-1
  viability at 10 µM: 51.9%
SNB-19
  viability at 10 µM: 77.7%
BT-549
  viability at 10 µM: 82.5%
IGROV-1
  viability at 10 µM: 32.6%
MOLT-4
  viability at 10 µM: 55.5%
SN12C
  viability at 10 µM: 58.7%
Malme-3M
  viability at 10 µM: 107%
UACC-62
  viability at 10 µM: 60.1%
SW-620
  viability at 10 µM: 82.7%
EKVX
  viability at 10 µM: 78.8%
SF-295
  viability at 10 µM: 92%
SNB-75
  viability at 10 µM: 77.8%
K562
  viability at 10 µM: 55.1%
CCRF-CEM
  viability at 10 µM: 67.6%
U-251
  viability at 10 µM: 73.2%
SK-MEL-5
  viability at 10 µM: 57%
HCT-116
  viability at 10 µM: 60%
NCI-H522
  viability at 10 µM: 85%
HCC 2998
  viability at 10 µM: 100%
786-0
  viability at 10 µM: 65.5%
SF-268
  viability at 10 µM: 62.8%
TK-10
  viability at 10 µM: 87.6%
OVCAR-4
  viability at 10 µM: 82.4%
HOP-92
  viability at 10 µM: 98.1%
MDA-MB-435
  viability at 10 µM: 33.4%
NCI-H23
  viability at 10 µM: 87.6%
ACHN
  viability at 10 µM: 43.7%
OVCAR-8
  viability at 10 µM: 66.2%
UO-31
  viability at 10 µM: 31.3%
UACC-257
  viability at 10 µM: 104%
HOP-62
  viability at 10 µM: 89%
SK-OV-3
  viability at 10 µM: 86.4%
COLO 205
  viability at 10 µM: 48.4%
OVCAR-3
  viability at 10 µM: 80.5%
PC-3
  viability at 10 µM: 75%
RPMI-8226
  viability at 10 µM: 73.6%
NCI/ADR-RES
  viability at 10 µM: 79.1%
